Results on 21 compounds are retold here after US11014905B2, “2,6-disubstituted pyridine derivative” (Sumitomo Dainippon Pharma Co., Ltd., priority 2017, dated 2021).

Molecules are shown by their SMILES. A value given as a limit tells only on which side of the number the result lay.

Data set [1] can be described thus: Test 3-1: metabolic stability test of human liver microsome. Format: in vitro ADME. The conditions noted are these: human liver microsome 0.1 mg/mL, test compound 0.1 μmol/L, 37° C., 30 minutes. As to the method:
Test 3-1: Metabolic Stability Test of Human Liver Microsome
(§1) The stability of the present compounds for human liver microsome metabolism was evaluated as mentioned below. The used human liver microsome was obtained from Xenontech. Human liver microsome, NADPH, and each test compound were mixed in 25 mmol/L phosphate buffer solution (pH 7.4) to adjust each concentration as shown below, and the mixture was incubated at 37° C. for 30 minutes. • human liver microsome: 0.1 mg/mL • NAPDH: 3.2 mmol/L • test compound: 0.1 μmol/L
(§2) The residual ratio of the test compound in each sample after the incubation for 30 minutes was measured with a LC-MS, and the metabolic stability of human liver microsome was calculated about each test compound with the following formula. Metabolic stability of human liver microsome(mL/min/mg protein)=−LN(residual ratio)/“reaction time”/“concentration of human liver microsome”

Data set [2] is described as follows: Test 3-2: metabolic stability test of human liver microsome. Format: in vitro ADME. To be noted: human liver microsome 0.5 or 1.0 mg/mL, test compound 0.1 μmol/L, 37° C., 30 minutes. As to the method: Test 3-2: Metabolic Stability Test of Human Liver Microsome
as §1, with “In order to evaluate the metabolic stability of human liver microsomes more precisely, the stability” for “The stability”, “evaluated with a suitable concentration of human liver microsome,” for “evaluated”, “microsome: 0.5 or 1.0” for “microsome: 0.1”
as §2

Regarding `CN(C)c1cccc(C2CCN(CCNC(=O)C3CCOCC3)CC2)n1` [Example 38, N-(2-{4-[6-(Dimethylamino)pyridin-2-yl]piperidin-1-yl}ethyl)-tetrahydro-2H-pyran-4-carboxamide], in data set [1], the “Metabolic stability of human liver microsome” value (“Metabolic stability” for short) was below 0.05 mL/min/mg protein.

Take `O=C(NCCN1CCC(c2cccc(C(F)(F)F)n2)CC1)C1CCCOC1` (stereo not drawn) [Example 2]: the “Metabolic stability” value in data set [1] was determined as 0.069 mL/min/mg protein.

`Cc1cccc(C2CCN(CCNC(=O)C3CC4CCC3O4)CC2)n1` (stereo not drawn) [Example 3]: in data set [1], the “Metabolic stability” value is recorded as below 0.01 mL/min/mg protein.

In the case of `Cc1cccc(C2=CCN(CCNC(=O)C3CCOCC3)CC2)n1` [Example 29, N-[2-(6-Methyl-3′,6′-dihydro[2,4′-bipyridin]-1′(2′H)-yl)ethyl]-tetrahydro-2H-pyran-4-carboxamide], the “Metabolic stability” value in data set [1] is below 0.05 mL/min/mg protein.

Consider `COCC(C)(C)C(=O)NCCN1CCC(c2cccc(C)n2)CC1` [Example 5], for which the “Metabolic stability” value in data set [1] was below 0.01 mL/min/mg protein.

Turning to `O=C(NCCN1CCC(c2cccc(OC(F)(F)F)n2)CC1)C1CCOCC1` [Example 28], the “Metabolic stability” value in data set [1] is below 0.05 mL/min/mg protein.

In the case of `Cc1cccc(C2CCN(CCNC(=O)C3CCOCC3)CC2)n1` [Example 8, N-{2-[4-(6-Methylpyridin-2-yl)piperidin-1-yl]ethyl}-tetrahydro-2H-pyran-4-carboxamide], the figures for the “Metabolic stability” value in data set [2] and in data set [1] were 0.023 mL/min/mg protein and 0.017 mL/min/mg protein, respectively.

As for `COCC(C)(C)C(=O)NCCN1CC=C(c2cccc(C(F)(F)F)n2)CC1` [Example 18], the “Metabolic stability” value in data set [1] is below 0.05 mL/min/mg protein.

Consider `Cc1cccc(C2=CCN(CCNC(=O)C3CCC(F)(F)CC3)CC2)n1` [Example 14], for which, in data set [1], the “Metabolic stability” value was 0.084 mL/min/mg protein.

Turning to `Cc1cccc(C2=CCN(CCNC(=O)[C@H]3C[C@@H]4CC[C@H]3O4)CC2)n1` [Example 13], the “Metabolic stability” value in data set [1] is listed as below 0.05 mL/min/mg protein.

`O=C(NCCN1CCC(c2cccc(C(F)(F)F)n2)CC1)[C@H]1C[C@@H]2CC[C@H]1O2` [Example 21]: the “Metabolic stability” value in data set [1] was below 0.05 mL/min/mg protein.

On to `CC(C)(C)C(=O)NCCN1CC=C(c2cccc(C(F)(F)F)n2)CC1` [Example 31, 2,2-Dimethyl-N-{2-[6-(trifluoromethyl)-3′,6′-dihydro[2,4′-bipyridin]-1′(2′H)-yl]ethyl}propanamide], for which the “Metabolic stability” value in data set [1] was below 0.05 mL/min/mg protein.

Regarding `Cc1cccc(C2CCN(CCNC(=O)C3CCCOC3)CC2)n1` (stereo not drawn) [Example 15], the “Metabolic stability” value in data set [1] is given as below 0.05 mL/min/mg protein.

Take `O=C(NCCN1CC=C(c2cccc(C(F)(F)F)n2)CC1)C1CCCOC1` (stereo not drawn) [Example 16, N-{2-[6-(Trifluoromethyl)-3′,6′-dihydro[2,4′-bipyridin]-1′(2′H)-yl]ethyl}-tetrahydro-2H-pyran-3-carboxamide]: in data set [1], the “Metabolic stability” value is below 0.05 mL/min/mg protein.

For the compound `Cc1cccc(C2CCN(CCNC(=O)C(C)(C)C)CC2)n1` [Example 10], in data set [1], the “Metabolic stability” value turned out to be 0.015 mL/min/mg protein.

Consider `COCC(C)(C)C(=O)NCCN1CCC(c2cccc(C(F)(F)F)n2)CC1` [Example 6], for which, in data set [1], the “Metabolic stability” value was below 0.01 mL/min/mg protein.

With `Cc1cccc(C2CCN(CCNC(=O)C3CCC(F)(F)CC3)CC2)n1` [Example 4], the “Metabolic stability” value in data set [1] is listed as below 0.01 mL/min/mg protein.

`CC(C)(C)C(=O)NCCN1CCC(c2cccc(C(F)(F)F)n2)CC1` [Example 9, 2,2-dimethyl-N-(2-{4-[6-(trifluoromethyl)pyridin-2-yl]piperidin-1-yl}ethyl)propanamide]: the “Metabolic stability” value is reported as 0.016 mL/min/mg protein in data set [2] and 0.025 mL/min/mg protein in data set [1].

As to `O=C(NCCN1CCC(c2cccc(C(F)F)n2)CC1)C1CCOCC1` [Example 34], the “Metabolic stability” value in data set [1] was below 0.05 mL/min/mg protein.

With `O=C(NCCN1CCC(c2cccc(C(F)(F)F)n2)CC1)C1CCC(F)(F)CC1` [Example 1, 4,4-Difluoro-N-(2-{4-[6-(trifluoromethyl)pyridin-2-yl]piperidin-1-yl}ethyl)cyclohexane-carboxamide], the “Metabolic stability” value is reported as 0.031 mL/min/mg protein in data set [2] and 0.073 mL/min/mg protein in data set [1].

`COc1cccc(C2CCN(CCNC(=O)C3CCOCC3)CC2)n1` [Example 33]: the “Metabolic stability” value in data set [1] is below 0.05 mL/min/mg protein.
